These results are taken from patent US7655600B2, “1-(azolin-2-yl)amino-1,2-diphenylethane compounds for combating insects, arachnids and nematodes” (BASF Aktiengesellschaft, priority 2003, dated 2010).

This data set has as its system Spodoptera eridania. As to the kind of experiment: Southern armyworm (Spodoptera eridania), 2nd instar larvae, on dipped Sieva lima bean foliage. The settings on record: 300 ppm, observation at 5 days. In kind it is in vivo. The procedure:
The active compounds were formulated • a. for testing the activity against Aphis gossypii, Myzus persicae, and Aphis fabae, as 50:50 acetone:water solutions amended with 100 ppm Kinetic® (surfactant), • b. for testing the activity against Spodoptera eridania as a 10.000 ppm solution in a mixture of 35% acetone and water, which was diluted with water, if needed,
After the experiments were completed, in each case the lowest concentration was determined at which the compound still caused an 75 to 100% inhibition or mortality in comparison with untreated controls (limit or minimal concentration).
Foliage of two Sieva lima beans plants at the first expanded true-leaf stage that are contained within a single 3.8 cm square plastic pot are dipped into the test solution with agitation for 3 seconds and allowed to dry in a hood. The pot is then placed in a 25.4 cm plastic zipper top bag and infested with ten 2nd instar caterpillars. At 5 days, observations are made of mortality, reduced feeding, or any interference with normal molting.

Take `Cc1cccc(CC(NC2=NCC(C)S2)c2ccccc2)c1` (stereo not shown) [Example 16]: the “mortality in comparison with untreated controls” value was “over 50%”.
